Assay results as given in patent US8377918B2 (ACC Therapeutics Inc, priority 2005, dated 2013).

Experiments:
[1] = system: A549 cell-induced tumor angiogenesis; assay: A549 Matrigel plug angiogenesis in nude mice; assay type: in vivo; settings: 15 μM apigenin in plug, 15 days
Experimental: FIG. 16. […] Each treatment group contained four mice. The mice were euthanized 15 days after implantation. Representative Matrigel plugs from the solvent- and apigenin-treated groups. C, D, the relative angiogenesis was analyzed by the levels of RBC hemoglobin, a surrogate marker, in the Matrigel plugs. The hemoglobin content was analyzed by adding 1×RBC lysis buffer (1 mM EDTA and 5 mM potassium/sodium phosphate buffer, pH 8-8.5) to a plug, followed by incubation at 4° C. overnight. Hemoglobin levels were determined by the Drabkin method by a commercial assay kit (Sigma) according to the manufacturer's instruction with some modification. […] Relative hemoglobin content is the hemoglobin level (milligrams) divided by the final volume of each plug. The data are the mean±S.E. of eight Matrigel plugs for each experiment. *, significant difference compared with the solvent control (p<0.05).

lung cancer cell A549 = assay: A549 cell counting proliferation; assay type: cell-based, human; settings: A549, 10 and 20 μM, 24 and 48 h
Experimental: FIG. 12. […] A, A549 cells were seeded at 5 ×10^5 cells/well on a 24-well plate, and cultured overnight the day before the treatment. […] After 24 and 48 h, aliquots of cells were counted in triplicate using a hemocytometer to obtain cell number and proliferation rate.

[2] = system: VEGF expression in A2780/CP70 cells; assay: VEGF ELISA of supernatants, A2780/CP70; assay type: cell-based, human; settings: A2780/CP70, 15 h
Experimental: FIG. 6. […] OVCAR-3 and A2780/CP70 cells were plated in 12-well plates and cultured to 90% confluence. […] The concentrations of VEGF in the supernatants were determined by ELISA method as described in Materials and Methods. The data are mean±SE from three independent experiments and each experiment was performed with triplicate cultures.

A549 tumors = assay: A549 tumor growth in nude mice; assay type: in vivo; settings: 3 mg/kg intraperitoneal three times a week, day 40
Experimental: FIG. 15. […] Each treatment group contained 10 mice. […] The mice were euthanized on day 40. A, representative tumors from the control and apigenin-treated groups. Scale bar, 1 cm. B, tumor volumes were measured by the width and length of tumors from 10 mice in each treatment when tumors were visible. The mean±S.D. were obtained from 10 mice. C, the tumors were removed from mice, measured by the width and length, and analyzed as above. D, the mean±S.D. of the tumor weight. *, significant difference when compared with the solvent control (p<0.05).

[3] = system: human fibroblast GM847 cells; assay: MTT proliferation, human fibroblast GM847 cells; assay type: cell-based; settings: same experimental conditions as cancer cells, 24 h
Experimental: (§1) FIG. 1. […] (A) A2780/CP70 cells and human fibroblast GM847 cells were seeded in 96-well plate at 4×10^3 cells per well and incubated overnight. […] The cells were incubated for 24 h. Cell proliferation was determined by MTT reduction. […] Cells were trypsinized, harvested, washed once with PBS buffer, and stained using the Annexin-V-Folus Kit as per the manufacture's instructions. […] After incubation, all cells were collected and total DNA was isolated. Eight (8) μg of DNA was resolved on 1.8% agarose gel. […] (D) Treatment of GM847 cells was the same as that of 5D. […] Cleavage of caspase-3 and PARP was detected by western-blot.

normal human cells = assay: Apoptosis of normal human cells (GM847 fibroblasts); assay type: cell-based; settings: at up to 40 μM apigenin
Experimental: as §1

A2780/CP70 tumors = assay: Secondary tumor growth in chicken embryos; assay type: in vivo, chicken embryo; settings: 7.5 μM apigenin, 9 days
Experimental: FIG. 2. […] Ovarian cancer cells A2780/CP70 were planted into 9-days old fertilized chicken embryos and incubated for 9 days to allow the tumor formation. The formed tumors were harvested and cut into pieces of 9-10 mg weight, and immediately implanted into another 9-day old fertilized chicken embryo and incubated for 9 days. […] In 9 days, the secondary tumor was cut and weighed.

[4] = system: HIF-1 expression in A2780/CP70 cells; assay: HIF-1 immunoblotting, A2780/CP70; assay type: cell-based, human
Excerpt: FIG. 5. […] The cells treated with solvent alone were used as a control. HIF-1α and HIF-1β protein levels were detected by immunoblotting as described in Materials and Methods. GAPDH was used as an internal control to test the loading and transfer efficiency.

[5] = system: VEGF transcriptional activity in A549 cells; assay: VEGF reporter luciferase assay in A549; assay type: cell-based, human; settings: A549, 5, 10, and 20 μM, 24 h
Experimental: FIG. 13. […] A549 cells were seeded on a six-well plate. When they reached 60 to 70% confluence, the cells were transfected using Lipofectamine reagent. A, A549 cells were cotransfected with 1 μg of pGL-StuI VEGF reporter and 0.3 μg of β-gal plasmid as described. […] Cells were then lysed and the supernatants were used to assay Luc and β-gal activities. The relative luciferase activities in the cell extracts were assayed by the ratio of Luc/β-gal activity and normalized to the value in the solvent DMSO control. B, cells were cotransfected with 1 μg of pMAP11wt VEGF reporter and 0.3 μg of β-gal plasmid as described. Cells were treated with different doses of apigenin as described above. C, the cells were transfected with pMAP11mut VEGF reporter (with 3-bp substitution of pMAP11wt), and treated as above “B”.

Colo-205 cells = assay: MTT cell proliferation assay, Colo-205 colon cancer cells; assay type: cell-based, human; settings: Colo-205, apigenin alone, 24 h
Experimental: FIG. 17. […] A, the prostate cancer cells PC-3 and DU145; B, colon cancer cells Colo-205 and HCT-116; C, lung cancer cells A549 and H460 cells were plated at 1×10^4 cells per well in a 96 well plate in 100 μl of media. […] FIG. 20. […] A, the prostate cancer cells PC-3 and DU145; B, colon cancer cells Colo-205 and HCT-116; C, lung cancer cells A549 and H460 cells were plated at 1×10^4 cells per well in a 96 well plate. […] Cell proliferation was examined by MTT assay. […] FIG. 22. […] A, colon cancer cells Colo-205 and HCT-116; B, lung cancer cells A549 and H460 cells were plated at 1×10^4 cells per well in a 96 well plate the day before the treatment. […] Cell proliferation was examined by MTT assay. […] FIG. 24. […] The IC50 values for inhibiting cell proliferation were calculated from cell proliferation assay as described above.

[6] = system: tumors induced by A2780/CP70 cells; assay: Blood vessel numbers of A2780/CP70 tumors on CAM; assay type: in vivo, chicken embryo; settings: 10 μM apigenin or 2.5 μM CDDP+10 μM apigenin, 10 days
Experimental: FIG. 4. […] The A2780/CP70 cells were seeded into 100 mm dish and grown to 90-100% confluence. […] In 10 days, the tumors were harvested and weighed. The blood vessel numbers of the tumor were counted under×100. At least five areas were determined. The data are mean±SD from two experiments (n=8). A, representative tumor morphology; B, tumor weight; C, relative numbers of blood vessels.

`O=c1cc(-c2ccc(O)cc2)oc2cc(O)cc(O)c12` [apigenin, 4′,5,7,-trihydroxyflavone] was tested, and the “effect on tumor angiogenesis (hemoglobin content of Matrigel plugs)” value [1] was “inhibited A549 cell-induced tumor angiogenesis”, the “effect on lung cancer cell proliferation” value (lung cancer cell A549) was “significantly inhibits” and the “effect on expression of VEGF” value [2] was “inhibited the expression of VEGF”. The “effect on tumor growth in vivo” value (A549 tumors) was “inhibited tumor growth in vivo”, the “effect on human normal fibroblast cells” value [3] was “little effects” and the “induction of apoptosis of normal human cells” value (normal human cells) was “did not induce apoptosis”. The “effect on tumor growth (secondary tumor weight)” value (A2780/CP70 tumors) was “inhibited tumor growth”, the “effect on HIF-1 expression” value [4] was “inhibited HIF-1 expression” and the “effect on VEGF transcriptional activation” value [5] was “dramatically suppresses”. The “effect on cell proliferation” value (Colo-205 cells) was “inhibited the proliferation” and the “inhibition of blood vessel formation (angiogenesis)” value [6] was 35%.
